Experimental data published in paper PMC7531004, “Discovery of gramicidin A analogues with altered activities by multidimensional screening of a one-bead-one-compound library” (Nature Communications, 2020).
Values joined by “and” are separate entries in the source; they are usually repeats but may differ in a detail not shown here. Equal values may be shown once. Read-outs that look alike come from different tables or passages of the source. Where a SMILES comes first, the peptide text is derived from it. [ ]: non-standard residue; d: D form. The star is where a group is joined. NHCH2CH2OH = OCCN*; For = O=C*

Tests used:
[1] = Membrane disruption assay of purified peptides (carboxyfluorescein leakage); type: biochemical; set-up: key: % lysis; Triton X-100 = 100%, DMSO = 0%; conditions: three replicate lines
Description: Membrane disruption assay of purified peptides. 5(6)-Carboxyfluorescein (CF)-encapsulated large […]
through Nuclepore polycarbonate filters mounted in the mini-extruder apparatus. A solution of egg yolk phosphatidylcholine (EYPC, 22.0 mg, 28.9 µmol) in CHCl3 (225 µL) and egg yolk phosphatidylglycerol (1.2 0 […]
mM HEPES, 100 mM NaCl, 20 mM CF) by sonication. After five -times freeze-thaw cycles, the lipid […]
concentration of the resultant CF -encapsulated LUV suspension was deduced from the phosphatidylcholine concentration determined by using Phospholipid C -Test Wako. The lipid concentration of the LUV […]
as 5-fold serial dilution. The solution of peptide (2.0 µL) and the CF-encapsulated LUV suspension (200 […]
The resultant suspension was incubated at room temperature for 30 min. The fluorescence (Ex. 490 nm/Em. 517 nm) of each well was measured on Gemini EM microplate reader. Triton X-100/H2O (5/95, 3.0 µL), DMSO (2.0 µL), and the LUV suspension were mixed in each plate to determine 100% lysis. […]
was used to determine 0% lysis. The membrane disruption activities of tested peptides ( I) were normalized against 100% lysis by Triton X-100 (Imax) and 0% lysis by DMSO ( I0) according to Supplementary Equation 2 , where Ix is the fluorescence intensity.
The membrane disruption activities of the purified peptides were plotted as means of three replicates (Supplementary Figure 1).

[2] = Description: (§1) Second, we examined the cytotoxicity toward mammalian cancer cells and hemolytic activity of 1. […] Hemolytic activity was evaluated by monitoring hemoglobin leakage from rabbit red blood cells as a consequence of membrane damage. The concentration of 1 required to cause 10% hemoglobin leakage (HC10) was 160 nM. Thus, the P388 cytotoxicity of 1 was 28-fold more sensitive than its hemolytic activity.
(§2) Mammalian cytotoxicity assay of purified peptides.
(§3) B22 was diluted with the growth medium with 2% DMSO to various concentrations as 5-fold serial dilution.
(§4) The collected cells were resuspended into
(§5) the growth medium at 2 × 10^4 cells/mL. Aliquots of the former medium (2% DMSO, 100 µL) containing
(§6) peptides and the latter medium containing P388 cells (100 µL) were mixed in a 96-well cell culture plate
(§7) (TR5003, TrueLine). The final concentration of P388 cells and DMSO were 1 × 10^4 cells/mL and 1%,
(§8) respectively. […]
(§9) were determined by WST -1 assay. A solution of 1-methoxy PMS and WST-1 in the growth medium
(§10) (1-methoxy PMS 0.70 mg/mL in Milli-Q/WST-1 3.6 mg/mL in pH 7.4 HEPES buffer = 1/9) was added to
(§11) each well of the plate (20.0 µL/well). The cells were incubated for 4 h under atmosphere of 5% CO 2 at
(§12) 37 °C. The absorbance of each well at 415 nm was measured using a Benchmark microplate reader
(§13) (Bio-Rad) or Thermo Scientifi c Multiskan GO (Thermo Fisher Scientific). The cytotoxicities of the purified
(§14) peptides were evaluated as IC 50 (nM) by means of three replicates. Sigmoidal curve fittings were performed

[3] = system: P388 mouse leukemia cell line
Description: as §1, §2, §3, §4, §5, §6, §7, §8, §9, §10, §11, §12, §13, §14

[4] = system: Streptococcus pyogenes SSI-9; assay: Antibacterial activity assay of bead-derived peptides (three concentrations); type: cell-based; set-up: key: +++: inhibition by the 640-fold diluted peptide solution; ++: inhibition by the 160-fold diluted solution; +: inhibition by the 40-fold diluted solution; -: no inhibition; conditions: S. pyogenes
In short: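 Three stock dilutions per peptide (none, 4-fold, 16-fold in DMSO) are screened in 96-well format. The medium is blood-supplemented cation-adjusted MHB, inoculated with 2 × 10^5 CFU S. pyogenes SSI-9. Growth is read as cell precipitation at 18 h, 37 °C.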

[5] = IC50, mammalian cytotoxicity assay

SMILES	Supplementary Figure 1 dose-response value ([1]; concentration 0.000512 nM)	Supplementary Figure 1 dose-response value ([1]; concentration 0.00256 nM)	Supplementary Figure 1 dose-response value ([1]; concentration 0.0128 nM)	Supplementary Figure 1 dose-response value ([1]; concentration 0.064 nM)	Supplementary Figure 1 dose-response value ([1]; concentration 0.32 nM)	Supplementary Figure 1 dose-response value ([1]; concentration 1.6 nM)	Supplementary Figure 1 dose-response value ([1]; concentration 8 nM)	Supplementary Figure 1 dose-response value ([1]; concentration 40 nM)	Supplementary Figure 1 dose-response value ([1]; concentration 200 nM)	Supplementary Figure 1 dose-response value ([1]; concentration 1000 nM)	Supplementary Figure 1 dose-response value ([1]; concentration 5000 nM)	IC50 [2, 5]	IC50 ([3]; 2 h)	IC50 ([2]; Cytotoxicity IC50)	antibacterial activity in the library screening [4]	IC50 ([2]; cytotoxicity against P388 cells/IC50)	weaker cytotoxicity than 1 [3]
CC(C)C[C@@H](NC(=O)[C@H](C)NC(=O)CNC(=O)[C@@H](NC=O)C(C)C)C(=O)N[C@@H](C)C(=O)N[C@@H](C(=O)N[C@H](C(=O)N[C@@H](C(=O)N[C@@H](Cc1c[nH]c2ccccc12)C(=O)N[C@H](CC(C)C)C(=O)N[C@@H](Cc1c[nH]c2ccccc12)C(=O)N[C@H](CC(C)C)C(=O)N[C@@H](Cc1c[nH]c2ccccc12)C(=O)N[C@H](CC(C)C)C(=O)N[C@@H](Cc1c[nH]c2ccccc12)C(=O)NCCO)[C@H](C)O)C(C)C)C(C)C [B13] (For-VGA[dL]A[dV]V[dT]W[dL]W[dL]W[dL]W-NHCH2CH2OH)	12.6222 and 8.681 and 14.1878	5.0387 and -8.856 and 0.4118	17.1111 and 10.8226 and 6.743	2.158 and 0.4656 and 8.156	0.4983 and 9.035 and 4.354	8.628 and -5.518 and 5.634	16.7483 and 16.868 and 17.3839	8.5256 and 14.4302 and 19.7817	29.195 and 23.7339 and 11.0358	32.784 and 37.4398 and 33.6736	66.9777 and 54.6664 and 50.7322	> 1000 nM	> 1000 nM	–	–	–	–
CC(C)C[C@@H](NC(=O)[C@H](Cc1c[nH]c2ccccc12)NC(=O)[C@@H](CC(C)C)NC(=O)[C@H](Cc1c[nH]c2ccccc12)NC(=O)[C@@H](CC(C)C)NC(=O)[C@H](Cc1c[nH]c2ccccc12)NC(=O)[C@H](NC(=O)[C@@H](NC(=O)[C@H](NC(=O)[C@H](C)NC(=O)[C@H](NC(=O)[C@H](C)NC(=O)CNC(=O)[C@@H](NC=O)C(C)C)C(C)C)C(C)C)C(C)C)C(C)C)C(=O)N[C@@H](Cc1c[nH]c2ccccc12)C(=O)NCCO [A1] (For-VGA[dV]A[dV]V[dV]W[dL]W[dL]W[dL]W-NHCH2CH2OH)	15.596 and 11.1897 and 18.8476	19.0421 and 18.9023 and 11.8141	18.8248 and 18.451 and 13.318	5.787 and 7.036 and 10.8676	6.642 and 18.6722 and 17.2971	5.416 and 5.449 and 6.466	18.3076 and 19.5293 and 5.647	20.3219 and 7.57 and 17.0093	24.2624 and 22.7393 and 19.0922	20.1834 and 27.4358 and 26.1069	74.0004 and 66.4045 and 47.3037	3.52 nM	–	4.1 nM	+++	–	–
CC(C)C[C@@H](NC(=O)[C@H](C)NC(=O)CNC(=O)[C@@H](NC=O)C(C)C)C(=O)N[C@@H](C)C(=O)N[C@@H](C(=O)N[C@H](C(=O)N[C@@H](C(=O)N[C@@H](Cc1c[nH]c2ccccc12)C(=O)N[C@H](CC(C)C)C(=O)N[C@@H](Cc1c[nH]c2ccccc12)C(=O)N[C@H](CC(C)C)C(=O)N[C@@H](Cc1c[nH]c2ccccc12)C(=O)N[C@@H](C(=O)N[C@@H](Cc1c[nH]c2ccccc12)C(=O)NCCO)C(C)C)[C@H](C)O)C(C)C)C(C)C [B12] (For-VGA[dL]A[dV]V[dT]W[dL]W[dL]W[dV]W-NHCH2CH2OH)	14.3151 and 14.218 and 7.531	2.34 and -6.416 and 3.105	5.88 and 8.131 and 3.94	3.705 and 7.973 and 3.229	3.808 and 6.955 and 6.51	8.996 and 0.3041 and 5.919	7.9647 and 15.5867 and 17.3879	5.306 and 8.903 and 13.6255	28.0368 and 20.6509 and 3.758	25.4415 and 27.5334 and 28.0661	41.4626 and 58.8643 and 47.4572	340 nM	–	390 nM	–	387 ± 90.9 nM	70 fold
